According to ChEMBL document CHEMBL3227982, “Synthesis of some 4-substituted 8-amino-6-methoxyquinolines as potential antimalarials” (J Med Chem, 1979):
Active and inactive are the calls of the source. The calls are words filed in the database; no cut-off is given here.

Tests used:
[1] = tested on: Plasmodium berghei; test: Antimalarial activity against blood schizonticidal Plasmodium berghei infected in mouse assessed as change in host mean survival time at 160 mg/kg; type: functional
[2] = tested on: Plasmodium berghei; test: Antimalarial activity against blood schizonticidal Plasmodium berghei infected in mouse assessed as change in host mean survival time at 320 mg/kg; type: functional
[3] = tested on: Plasmodium berghei; test: Antimalarial activity against blood schizonticidal Plasmodium berghei infected in mouse assessed as change in host mean survival time at 40 mg/kg; type: functional
[4] = tested on: Plasmodium berghei; test: Antimalarial activity against blood schizonticidal Plasmodium berghei infected in mouse assessed as change in host mean survival time at 20 mg/kg; type: functional
[5] = tested on: Plasmodium berghei; test: Antimalarial activity against blood schizonticidal Plasmodium berghei infected in mouse assessed as change in host mean survival time at 80 mg/kg; type: functional
[6] = tested on: Mus musculus; test: Toxicity in mouse infected with blood schizonticidal Plasmodium berghei assessed as mortality at 640 mg/kg measured on days 2 to 5 after infection; type: organism-based; design: dose 640 mg/kg; details: in vivo
[7] = tested on: Mus musculus; test: Toxicity in mouse infected with blood schizonticidal Plasmodium berghei assessed as mortality at 160 mg/kg measured on days 2 to 5 after infection; type: organism-based; design: dose 160 mg/kg; details: in vivo
[8] = tested on: Mus musculus; test: Toxicity in mouse infected with blood schizonticidal Plasmodium berghei assessed as mortality at 80 mg/kg measured on days 2 to 5 after infection; type: organism-based; design: dose 80 mg/kg; details: in vivo
[9] = tested on: Plasmodium berghei; test: Antimalarial activity against blood schizonticidal Plasmodium berghei infected in mouse assessed as change in host mean survival time at 640 mg/kg; type: functional
[10] = tested on: Plasmodium cynomolgi; test: Antimalarial activity against Plasmodium cynomolgi infected in rhesus monkey assessed as disease relapsing day at 0.5 mg/kg administered qd for 7 days via stomach tube; type: functional
[11] = tested on: Plasmodium cynomolgi; test: Antimalarial activity against Plasmodium cynomolgi infected in rhesus monkey assessed as disease relapsing day at 1 mg/kg administered qd for 7 days via stomach tube; type: functional
[12] = tested on: Plasmodium cynomolgi; test: Antimalarial activity against Plasmodium cynomolgi infected in rhesus monkey assessed as curative activity without disease relapses until 90 days at 1 mg/kg administered qd for 7 days via stomach tube; type: functional, organism-based; design: dose 1 mg/kg
[13] = tested on: Plasmodium cynomolgi; test: Antimalarial activity against Plasmodium cynomolgi infected in rhesus monkey assessed as curative activity without disease relapses until 90 days at 0.25 mg/kg administered qd for 7 days via stomach tube; type: functional, organism-based; design: dose 0.25 mg/kg
[14] = tested on: Plasmodium cynomolgi; test: Antimalarial activity against Plasmodium cynomolgi infected in rhesus monkey assessed as disease relapsing day at 0.25 mg/kg administered qd for 7 days via stomach tube; type: functional
[15] = tested on: Plasmodium cynomolgi; test: Antimalarial activity against Plasmodium cynomolgi infected in rhesus monkey assessed as curative activity without disease relapses until 90 days at 0.75 mg/kg administered qd for 7 days via stomach tube; type: functional, organism-based; design: dose 0.75 mg/kg
[16] = tested on: Mus musculus; test: Toxicity in mouse infected with blood schizonticidal Plasmodium berghei assessed as mortality at 320 mg/kg measured on days 2 to 5 after infection; type: organism-based; design: dose 320 mg/kg; details: in vivo
[17] = tested on: Plasmodium cynomolgi; test: Antimalarial activity against Plasmodium cynomolgi infected in rhesus monkey assessed as curative activity without disease relapses until 90 days at 0.375 mg/kg administered qd for 7 days via stomach tube; type: functional, organism-based; design: dose 0.375 mg/kg
[18] = tested on: Plasmodium cynomolgi; test: Antimalarial activity against Plasmodium cynomolgi infected in rhesus monkey assessed as disease relapsing day at 0.375 mg/kg administered qd for 7 days via stomach tube; type: functional
[19] = tested on: Plasmodium cynomolgi; test: Antimalarial activity against Plasmodium cynomolgi infected in rhesus monkey assessed as curative activity without disease relapses until 90 days at 0.125 mg/kg administered qd for 7 days via stomach tube; type: functional, organism-based; design: dose 0.125 mg/kg
[20] = tested on: Plasmodium berghei yoelii; test: Antimalarial activity against sporozite stage of Plasmodium berghei yoelii infected in mouse assessed as curative activity at 160 mg/kg, po; type: functional, organism-based; design: dose 160 mg/kg
[21] = tested on: Plasmodium berghei yoelii; test: Antimalarial activity against sporozite stage of Plasmodium berghei yoelii infected in mouse assessed as host survival at 10 to 40 mg/kg, po; type: functional, organism-based
[22] = tested on: Plasmodium cynomolgi; test: Antimalarial activity against Plasmodium cynomolgi infected in rhesus monkey assessed as disease relapsing day at 0.125 mg/kg administered qd for 7 days via stomach tube; type: functional
[23] = tested on: Plasmodium berghei yoelii; test: Antimalarial activity against sporozite stage of Plasmodium berghei yoelii infected in mouse assessed as host survival at 10 to 160 mg/kg, sc; type: functional, organism-based

Row | SMILES | MST [1] | MST [2] | MST [3] | MST [4] | MST [5] | Activity [6] | MST [9] | Time [10] | also measured
1 | CCc1ccnc2c(NCCCCCCN3CCN(CCO)CC3)cc(OC)cc12 | 2.5 days | 4.1 days | 0.7 days | 0.1 days | 2.7 days | Toxic | – | – | –
2 | CCc1ccnc2c(NCCCCCCN)cc(OC)cc12 | – | – | 0.8 days | – | 4.8 days | – | – | – | Activity [7]: Toxic; Activity [8]: Toxic
3 | CCc1ccnc2c(NC(C)CCCNC(C)C)cc(OC)cc12 (configuration not stated) | 6.7 days | 10.5 days | 2.3 days | -0.3 days | 3.5 days | Toxic | – | – | –
4 | CCc1ccnc2c(NCCCCN)cc(OC)cc12 | 2.9 days | 6.3 days | 1.7 days | 0.9 days | 2.1 days | Non-toxic | 7.9 days | – | –
5 | COc1cc(NC(C)CCCN)c2nccc(CCSc3ccc(F)cc3)c2c1 (configuration not stated) | – | – | – | – | – | – | – | 7 days | Time [11]: 6 days; Activity [12]: inactive; Activity [13]: inactive; Time [14]: 13 days
6 | CCc1ccnc2c(NCCCCCCN(CC)CC)cc(OC)cc12 | 5.5 days | 6.7 days | 1.7 days | 0.5 days | 3.3 days | – | 7.9 days | – | –
7 | COc1cc(NC(C)CCCN)c2ncccc2c1 (configuration not stated) [PRIMAQUINE] | – | – | 5 days | 4 days | 9.4 days | Toxic | – | 11 days | Activity [15]: Active; Activity [16]: Toxic; Activity [7]: Toxic; Activity [17]: inactive; Time [18]: 11 days
8 | COc1cc(NC(C)CCCN)c2nccc(CCSc3ccc(Cl)cc3)c2c1 (configuration not stated) | 7.7 days | 8.9 days | 3.3 days | 2.3 days | 6.3 days | – | 14.6 days | – | –
9 | CCc1ccnc2c(NC(C)CCCN)cc(OC)cc12 (configuration not stated) | 6.4 days | 11.5 days | 3.8 days | 2.8 days | 5.2 days | – | – | 28 days | Time [11]: 37 days; Activity [13]: inactive; Time [14]: 7 days; Activity [19]: inactive
10 | C=Cc1ccnc2c(NC(C)CCCN)cc(OC)cc12 (configuration not stated) | 8.7 days | 7.7 days | 1.7 days | 1.1 days | 5.9 days | Toxic | – | 10 days | Activity [16]: Toxic; Time [11]: 24 days; Activity [13]: inactive; Time [14]: 7 days
11 | COc1ccc(SCCc2ccnc3c(NC(C)CCCN)cc(OC)cc23)cc1 (configuration not stated) | 2.7 days | 6.1 days | 0.3 days | 0.1 days | 2.1 days | – | 7.5 days | – | Activity [20]: Active; Activity [21]: inactive; Time [22]: 9 days; Activity [23]: inactive
12 | CCc1ccnc2c(NC(C)CCCN(CC)CC)cc(OC)cc12 (configuration not stated) | 6.6 days | – | 1.5 days | 1.1 days | 3.7 days | Toxic | – | – | Activity [16]: Toxic
